Experiment in all cases: growth of human tumour cells (NCI), 48 h
The subject of assay [1] is A498.
Assay [2] concerns COLO 205.
For assay [3], the system named is DU-145.
Assay [4] has as its system IGROV-1.
The subject of assay [5] is LOX IMVI.
The test system of assay [6] is MCF7.
Assay [7] deals with MDA-MB-231.
The test system of assay [8] is MDA-N.
For assay [9], the system named is MOLT-4.
Assay [10] concerns OVCAR-5.
Assay [11] concerns OVCAR-8.
Assay [12] concerns RPMI-8226.
In assay [13] the test system is SF-295.
The test system of assay [14] is SK-MEL-28.
The subject of assay [15] is SNB-19.
In assay [16] the test system is SNB-75.
The subject of assay [17] is SW-620.
For assay [18], the system named is T47D.
Assay [19] relates to TK-10.
Assay [20] concerns UACC-257.

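Results reflect a 48-hour exposure of cells in 96-well plates to compound at five concentrations. At the GI50, growth is halved.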 Calls of active or inactive are those of the source. Cut-off read from the data, not from the text of the source: active = GI50 up to about 1.1 µM and inactive = higher.

In the case of `COC(=O)[C@@H]1C2OC(C)(C)OC2CN1C(=O)OCc1ccccc1` (some centres undefined), the GI50 in [1], in assay [2], in assay [3], in assay [4], in assay [5] and in [6] was > 100 µM (inactive) each time. In addition, the GI50 in [7], in assay [8], in assay [9], in assay [10], in assay [11] and in assay [12] was > 100 µM (inactive) throughout. In addition, the GI50 in assay [13] is > 100 µM (inactive); in [14] it was > 100 µM (inactive); in assay [15] it was > 100 µM (inactive); in assay [16], 4.58 µM (inactive); in assay [17], > 100 µM (inactive); in [18], > 100 µM (inactive). Also, the GI50 in assay [19] and in [20] was > 100 µM (inactive) throughout.
On to `Cc1c(Cl)c(C)c(Cl)c(O)c1Cl`, for which the GI50 in assay [1] was 19 µM (inactive); in [2] it was 60 µM (inactive); in [3] it was 37 µM (inactive); in [4], 44.3 µM (inactive); in assay [5], 26.2 µM (inactive); in [6], 31.6 µM (inactive). The GI50 in [7] is 27 µM (inactive); in assay [8] it was 24.6 µM (inactive); in assay [9] it was 17.1 µM (inactive); in assay [10] it was 35.2 µM (inactive); in assay [11], 30.3 µM (inactive); in assay [12], 17.3 µM (inactive). In addition, the GI50 was 24.8 µM (inactive) in [13]; 38.4 µM (inactive) in assay [14]; 30.5 µM (inactive) in assay [15]; 23.9 µM (inactive) in assay [16]; 34.3 µM (inactive) in [17]; 24.8 µM (inactive) in assay [18]. Besides, the GI50 in assay [19] and in assay [20] was 22.1 µM (inactive) in each case.
`CC1=C(C)C(=O)O[C@@H]([C@](C)(O)[C@]2(O)CC[C@@]3(O)[C@@H]4C[C@H](O)[C@]5(O)[C@@H](O)C=CC(=O)[C@]5(C)[C@H]4CC[C@]23C)C1`: the GI50 in assay [1] is > 100 µM (inactive); in [2] it was > 100 µM (inactive); in assay [3], > 100 µM (inactive); in [4], > 100 µM (inactive); in [5], 58.5 µM (inactive); in assay [6], 46.2 µM (inactive). The GI50 is > 100 µM (inactive) in [7]; 93.1 µM (inactive) in [8]; > 100 µM (inactive) in [9]; > 100 µM (inactive) in [10]; > 100 µM (inactive) in assay [11]; 49.9 µM (inactive) in assay [12]. Besides, the GI50 is > 100 µM (inactive) in assay [13]; > 100 µM (inactive) in assay [14]; > 100 µM (inactive) in [15]; 37.2 µM (inactive) in assay [16]; > 100 µM (inactive) in assay [17]; > 100 µM (inactive) in [18]. Further, the GI50 in assay [19] and in [20] was > 100 µM (inactive) each time.
As for `O=C1CCc2cc3c(cc21)CC1(Cc2ccccc2C1)C3`, the GI50 in assay [1] was 12.2 µM (inactive); in assay [2], 3.79 µM (inactive); in assay [3], 20.8 µM (inactive); in assay [4] it was 4.3 µM (inactive); in assay [5] it was 8.02 µM (inactive); in assay [6], 9.29 µM (inactive). The GI50 in [7] is 12 µM (inactive); in [8], 2.16 µM (inactive); in [9], 0.678 µM (active); in assay [10] it was 16.3 µM (inactive); in [11], 24.9 µM (inactive); in assay [12], 6.27 µM (inactive). Further, the GI50 in assay [13] was 6.43 µM (inactive); in [14], 10.3 µM (inactive); in assay [15] it was 27.2 µM (inactive); in [16] it was 15.7 µM (inactive); in assay [17], 4.34 µM (inactive); in assay [18], 20.2 µM (inactive). The GI50 was 30.3 µM (inactive) in assay [19] and 19.6 µM (inactive) in [20].
As for `CC(=O)OCC1=C2C(OC(=O)C(C)C)CC3(COC(C)=O)OC3/C=C\C3(C)OC3C2OC1=O` (centres undefined), the GI50 in [1], in assay [2], in assay [3], in assay [4], in [5] and in assay [6] was > 100 µM (inactive) throughout. The GI50 in assay [7], in [8], in [9], in assay [10], in assay [11] and in [12] was > 100 µM (inactive) in each case. The GI50 in [13], in [14], in assay [15], in assay [16], in assay [17] and in assay [18] was > 100 µM (inactive) throughout. Moreover, the GI50 in assay [19] and in [20] was > 100 µM (inactive) in each case.
For `O=c1[nH][nH]c(=O)n1CCCCCCn1c(=O)[nH][nH]c1=O`, the GI50 in [1], in assay [2], in [3], in [5], in assay [6] and in assay [7] was > 100 µM (inactive) each time. Moreover, the GI50 in assay [8], in [9], in [10], in [11], in [12] and in assay [14] was > 100 µM (inactive) each time. The GI50 in [15], in assay [16], in assay [17], in assay [18], in assay [19] and in assay [20] was > 100 µM (inactive) each time.
With `Oc1cc(-c2ccccc2)nc2ncccc12`, the GI50 in assay [1] is > 100 µM (inactive); in assay [2] it was 0.0855 µM (active); in assay [3], 0.298 µM (active); in assay [4], 0.2 µM (active); in assay [5], 0.0552 µM (active); in assay [6], 0.0372 µM (active). The GI50 in assay [7] was 0.418 µM (active); in assay [8], 0.0129 µM (active); in assay [9], 0.0962 µM (active); in [11] it was 0.22 µM (active); in assay [12] it was 0.171 µM (active); in assay [13], 0.0698 µM (active). The GI50 is 0.0743 µM (active) in assay [14]; 0.222 µM (active) in assay [15]; 0.0975 µM (active) in assay [16]; 0.0438 µM (active) in [17]; > 100 µM (inactive) in [18]; 0.206 µM (active) in assay [19]. In addition, the GI50 in assay [20] was 0.203 µM (active).
As for `CC(=O)N(C(=O)CC(=O)NNCc1ccccc1Cl)c1ccc(Cl)cc1`, the GI50 in assay [1] was > 10 µM (inactive); in assay [2] it was > 10 µM (inactive); in assay [3], > 10 µM (inactive); in assay [4], > 10 µM (inactive); in [5] it was > 10 µM (inactive); in assay [6], 5.97 µM (inactive). Also, the GI50 in assay [7], in assay [8], in assay [9], in assay [10], in [11] and in assay [12] was > 10 µM (inactive) throughout. Also, the GI50 is > 10 µM (inactive) in assay [13]; > 10 µM (inactive) in [14]; > 10 µM (inactive) in assay [15]; > 10 µM (inactive) in [16]; 8.11 µM (inactive) in [18]; > 10 µM (inactive) in assay [19]. Besides, in assay [20], the GI50 was > 10 µM (inactive).
Consider `OCC1OC(c2cccc3cc(O)c(O)cc23)CC1O` (centres undefined), for which the GI50 in assay [1] is > 100 µM (inactive); in assay [3], > 100 µM (inactive); in [4], 64 µM (inactive); in assay [5] it was > 100 µM (inactive); in [6], > 100 µM (inactive); in [7] it was > 100 µM (inactive). Besides, the GI50 in assay [8], in assay [9], in assay [10], in [11], in assay [12] and in [13] was > 100 µM (inactive) in each case. Further, the GI50 in [14], in assay [15], in assay [16], in assay [17], in [18] and in assay [19] was > 100 µM (inactive) in each case. For the same molecule, in assay [20], the GI50 is > 100 µM (inactive).
Consider `O=C1Oc2ccccc2C(=O)/C1=C/N1C(=O)/C(=C/c2ccc([N+](=O)[O-])cc2)SC1=S`, for which the GI50 in assay [1] is 7.91 µM (inactive); in assay [2] it was 20.5 µM (inactive); in assay [3], 25.7 µM (inactive); in assay [4] it was 32.3 µM (inactive); in assay [5] it was 29.6 µM (inactive); in [6] it was 35.6 µM (inactive). Further, the GI50 is 24.9 µM (inactive) in assay [7]; 17.2 µM (inactive) in assay [8]; 29.8 µM (inactive) in assay [9]; 34.4 µM (inactive) in assay [10]; 21.8 µM (inactive) in [11]; 5.65 µM (inactive) in assay [12]. Further, the GI50 in assay [13] is 17.7 µM (inactive); in assay [14] it was 22.7 µM (inactive); in assay [15] it was 21.9 µM (inactive); in assay [16], 16.6 µM (inactive); in assay [17], 21.8 µM (inactive); in assay [18], 5.98 µM (inactive). In addition, in [20], the GI50 is 25.8 µM (inactive).
